Experimental data published in ChEMBL document CHEMBL1150613, “New flavonol oligoglycosides and polyacylated sucroses with inhibitory effects on aldose reductase and platelet aggregation from the flowers of Prunus mume” (J Nat Prod, 2002).

Key:
[1] = molecular target: Aldo-keto reductase family 1 member B1 (Rattus norvegicus, UniProt P07943); assay: Inhibition of aldose reductase in rat lens homogenates by fluorophotometer
[2] = molecular target: Aldo-keto reductase family 1 member B1 (Rattus norvegicus) (UniProt P07943); assay: Inhibition of aldose reductase in rat lens homogenates at 30 uM by fluorophotometry
[3] = system: Platelet; assay: Inhibition of thrombin-induced platelet aggregation in washed rabbit platelets at 0.1 mM treated 2 mins before thrombin challenge by aggregometer; format: functional; conditions: Oryctolagus cuniculus
[4] = system: Platelet; assay: Inhibition of thrombin-induced platelet aggregation in washed rabbit platelets at 0.5 mM treated 2 mins before thrombin challenge by aggregometer; format: functional; conditions: Oryctolagus cuniculus
[5] = system: Platelet; assay: Inhibition of thrombin-induced platelet aggregation in washed rabbit platelets at 1.0 mM treated 2 mins before thrombin challenge by aggregometer; format: functional; conditions: Oryctolagus cuniculus

IC50 [1] [µM]	Compound	other results
9.8	COc1cc(-c2oc3cc(O)cc(O)c3c(=O)c2O[C@@H]2O[C@H](CO[C@@H]3O[C@@H](C)[C@H](O)[C@@H](O)[C@H]3O)[C@@H](O)[C@H](O)[C@H]2OC(C)=O)ccc1O	
> 30	C[C@@H]1O[C@@H](OC[C@H]2O[C@@H](Oc3c(-c4ccc(O)c(O)c4)oc4cc(O)cc(O)c4c3=O)[C@H](O[C@@H]3O[C@@H](C)[C@H](O)[C@@H](O)[C@H]3O)[C@@H](O)[C@H]2O)[C@H](O)[C@H](O)[C@H]1O	inhibition [2]: 40%
18	C[C@@H]1O[C@@H](O[C@H]2[C@H](Oc3c(-c4ccc(O)c(O)c4)oc4cc(O)cc(O)c4c3=O)O[C@H](CO)[C@H](O)[C@@H]2O)[C@H](O)[C@H](O)[C@H]1O	
19	COc1cc(-c2oc3cc(O)cc(O)c3c(=O)c2O[C@@H]2O[C@@H](C)[C@H](O)[C@@H](O)[C@H]2O)ccc1O	

The next lines start with the compound.

Compound	IC50 [1] [µM]	other results
C[C@@H]1O[C@@H](OC[C@H]2O[C@@H](Oc3c(-c4ccc(O)c(O)c4)oc4cc(O)cc(O)c4c3=O)[C@H](O)[C@@H](O)[C@@H]2O)[C@H](O)[C@H](O)[C@H]1O [RUTIN]	13	
CC(=O)O[C@H]1[C@H](Oc2c(-c3ccc(O)c(O)c3)oc3cc(O)cc(O)c3c2=O)O[C@H](CO[C@@H]2O[C@@H](C)[C@H](O)[C@@H](O)[C@H]2O)[C@@H](O)[C@@H]1O	18	
CC(=O)Oc1ccccc1C(=O)O [ASPIRIN]		inhibition at 100 µM [3]: 15.8%; inhibition at 500 µM [4]: 39.4%; inhibition at 1000 µM [5]: 53.5%
